GI50 data for 17 molecules are collected here from US8835458B2 (Hanmi Science Co., Ltd, priority 2010, dated 2014).

Data set [1] can be described thus: Toxicity to normal cells (SRB). Type of data set: cell-based, human. The following applies: human, Hs27 fibroblasts (normal cell line). The protocol: (§1) MDA-MB-231 breast cancer cell lines (ATCC #HTB-26) and BxPC-3 pancreas cancer cell lines (ATCC #CRL 1687), which have been reported to express XIAP, were obtained from ATCC (American type culture collection; Rockville, Md.). MDA-MB-231 cell lines were incubated in L-15 medium supplemented with 10% FBS and 1% penicillin/streptomycin (Gibco BRL) at a T-75 cm^2 growth flask. In addition, BxPC-3 cell lines were incubated in RPMI medium supplemented with 10% FBS and 1% penicillin/streptomycin. For experiments of toxicity to normal cells, fibroblasts Hs27 (ATCC #CRL 1634) and Balb/c3t3 (ATCC #CCL 163) were used. The various cell lines were transferred into 96-well plates at a density of 3,000˜5,000 cells/100 μL, and cultured for 24 hours under conditions of 37° C., 5% CO2, 95% air, and 100% relative humidity (MDA-MB-231 cells were cultured under atmospheric conditions). The cells were treated with 10 μM˜0.1 nM of test compounds, and MDA-MB-231, BxPC-3, and normal cell lines were cultured for 120, 96, and 72 hours, respectively.
(§2) Cell viabilities of MDA-MB-231 cell lines were measured at an absorbance of 490 nm using CellTiter 96™ AQueous One Solution Cell proliferation Assay (MTS, Promega), and cell viabilities of BxPC-3 and normal cell lines were measured by fixing cells with 10% TCA (trichloroacetic acid), staining with SRB (sulforhodamine B), and measuring at 540 nm. From the values, GI50 values in which test compounds reduce the growth of cancer cells by 50% were calculated. The growth rates of cancer cells were calculated from following Equation 1 or 2. [(Ti−Tz)/(C−Tz)]×100 (for Ti>=Tz) [Equation 1] [(Ti−Tz)/Tz]×100 (for Ti<Tz) [Equation 2] In Equations 1 and 2, Tz refers to a density of untreated cells, which is an absorbance in 0% cell growth groups. C refers to a density of cells cultured by adding only medium, and Ti refers to a density of cells treated with test compounds.
(§3) GI50 value is the concentration of a test compound when the value of Equation 1 is 50, which indicates the concentration of test compound required to inhibit the cancer cells by 50%. On each measurement, test compounds were compared with a control.
(§4) The activity value of each compound (GI50 value) was shown in Table 5, and an IAP antagonist was used as a control.
(§5) In the activity measurement on MDA-MB-231 breast cancer cell lines, the values were represented as “***” for 100 nM or less, “**” for over 100 nM to below 1,000 nM, and “*” for 1,000 nM or more. In the measurement on normal cell lines, Balb/C and Hs27, the values were represented as “+++” for 10,000 nM or more, “++” for over 5,000 nM to below 10,000 nM, and “+” for 5,000 nM or less.

Data set [2] concerns MDA-MB-231 breast cancer cell lines. As to the kind of experiment: Evaluation of inhibition on cell growth (MTS). The following applies: Homo sapiens, MDA-MB-231, 120 hours. The class given is cell-based. The protocol: as §1, §2, §3, §4, §5

Structures can show the parent of a compound that is named as a salt.

Usually GI50 stands for the concentration giving 50% growth inhibition.

In data set [1], `CN[C@@H](C)C(=O)N[C@H](C(=O)N1CCC[C@H]1C(=O)Nc1cc2c(Nc3cccc(Cl)c3Cl)ncnc2cc1OC)C(C)(C)C` [Example 81, (S)—N-(4-((2,3-dichlorophenyl)amino)-7-methoxyquinazolin-6-yl)-1-((S)-3,3-dimethyl-2-((S)-2-(methylamino)propanamido)butanoyl)pyrrolidine-2-carboxamide hydrochloride] showed a GI50 at 72 h above 10000 nM. The molecule also had a GI50 in data set [2] of at most 100 nM.
`CN[C@@H](C)C(=O)N[C@H](C(=O)N1CCC[C@H]1C(=O)Nc1cc2c(Nc3ccc(-n4ccnc4)cc3)ncnc2cc1OC)C(C)(C)C` [Example 88, (S)—N-(4-((4-(1H-imidazol-1-yl)phenyl)amino)-7-methoxyquinazolin-6-yl)-1-((S)-3,3-dimethyl-2-((S)-2-(methylamino)propanamido)butanoyl)pyrrolidine-2-carboxamide hydrochloride] came in with a GI50 at 72 h in data set [1] above 10000 nM. Further, the GI50 in data set [2] was at most 100 nM.
As to `CN[C@@H](C)C(=O)N[C@H](C(=O)N1CCC[C@H]1C(=O)Nc1cc2c(NCC3CCCCC3)ncnc2cc1OC)C(C)(C)C` [Example 77, (S)—N-(4-(cyclohexylmethyl)amino)-7-methoxyquinazolin-6-yl)-1-((S)-3,3-dimethyl-2-((S)-2-(methylamino)propanamido)butanoyl)pyrrolidine-2-carboxamide hydrochloride], in data set [1], the GI50 at 72 h was above 10000 nM. For the same molecule, the GI50 in data set [2] is at most 100 nM.
As to `CN[C@@H](C)C(=O)N[C@H](C(=O)N1CCC[C@H]1C(=O)Nc1cc2c(Nc3ccc(N4CCC(N5CCN(C)CC5)CC4)cc3)ncnc2cc1OC)C(C)(C)C` [Example 105, (S)-1-((S)-3,3-dimethyl-2-((S)-2-(methylamino)propanamido)butanoyl)-N-(7-methoxy-4-((4-(4-(4-methylpiperazin-1-yl)piperidin-1-yl)phenyl)amino)quinazolin-6-yl)pyrrolidine-2-carboxamide hydrochloride], the 50% growth inhibitory concentration (GI50) at 72 h in data set [1] is above 10000 nM. Moreover, the GI50 in data set [2] was at most 100 nM.
As to `CN[C@@H](C)C(=O)N[C@H](C(=O)N1CCC[C@H]1C(=O)Nc1cc2c(Nc3ccc(CN4CCCCC4)cc3)ncnc2cc1OC)C(C)(C)C` [Example 104, (S)-1-((S)-3,3-dimethyl-2-((S)-2-(methylamino)propanamido)butanoyl)-N-(7-methoxy-4-((4-(piperidin-1-ylmethyl)phenyl)amino)quinazolin-6-yl)pyrrolidine-2-carboxamide hydrochloride], the GI50 at 72 h in data set [1] is above 10000 nM. For the same molecule, the 50% growth inhibitory concentration (GI50) in data set [2] is at most 100 nM.
For `CCCN1CCN(c2ccc(Nc3ncnc4cc(OC)c(NC(=O)[C@@H]5CCCN5C(=O)[C@@H](NC(=O)[C@H](C)NC)C(C)(C)C)cc34)cc2Cl)CC1` [Example 98, (S)—N-(4-((3-chloro-4-(4-propyl-1-yl)phenyl)amino)-7-methoxyquinazolin-6-yl)-1-((S)-3,3-dimethyl-2-((S)-2-(methylamino)propanamido)butanoyl)pyrrolidine-2-carboxamide hydrochloride], the GI50 at 72 h in data set [1] is above 10000 nM. The molecule further came in with a GI50 in data set [2] of at most 100 nM.
Take `CN[C@@H](C)C(=O)N[C@H](C(=O)N1CCC[C@H]1C(=O)Nc1cc2c(Nc3ccc(N4CCN(C(C)C)CC4)c(Cl)c3)ncnc2cc1OC)C(C)(C)C` [Example 97, (S)—N-(4-((3-chloro-4-(4-isopropylpiperazin-1-yl)phenyl)amino)-7-methoxyquinazolin-6-yl)-1-((S)-3,3-dimethyl-2-((S)-2-(methylamino)propanamido)butanoyl)pyrrolidine-2-carboxamide hydrochloride]: in data set [1], the GI50 at 72 h was above 10000 nM. Besides, the GI50 in data set [2] was at most 100 nM.
The molecule `CN[C@@H](C)C(=O)N[C@H](C(=O)N1CCC[C@H]1C(=O)Nc1cc2c(Nc3ccc(N4CCOCC4)cc3)ncnc2cc1OC)C(C)(C)C` [Example 90, (S)-1-((S)-3,3-dimethyl-((S)-2-(methylamino)propanamido)butanoyl)-N-(7-methoxy-4-((4-morpholinophenyl)amino)quinazolin-6-yl)pyrrolidine-2-carboxamide hydrochloride] gave a GI50 at 72 h in data set [1] above 10000 nM. Further, the GI50 in data set [2] was at most 100 nM.
Take `CN[C@@H](C)C(=O)N[C@H](C(=O)N1CCC[C@H]1C(=O)Nc1cc2c(NC3CCC(N4CCC(C)CC4)CC3)ncnc2cc1OC)C(C)(C)C` (stereo partly drawn) [Example 107, (S)-1-((S)-3,3-dimethyl-2-((S)-2-(methylamino)propanamido)butanoyl)-N-(7-methoxy-4-((4-(4-methylpiperidin-1-yl)cyclohexyl)amino)quinazolin-6-yl)pyrrolidine-2-carboxamide hydrochloride]: the GI50 at 72 h in data set [1] was above 10000 nM. In data set [2], this molecule registered a GI50 of 100 to 1000 nM.
`CN[C@@H](C)C(=O)N[C@H](C(=O)N1CCC[C@H]1C(=O)Nc1cc2c(Nc3ccc(F)cc3Br)ncnc2cc1OC)C(C)(C)C` [Example 82, (S)—N-(4-((2-bromo-4-fluorophenyl)amino)-7-methoxyquinazolin-6-yl)-1-((S)-3,3-dimethyl-2-((S)-2-(methylamino)propanamido)butanoyl)pyrrolidine-2-carboxamide hydrochloride] showed a 50% growth inhibitory concentration (GI50) at 72 h in data set [1] above 10000 nM. In data set [2], this molecule returned a concentration for 50% growth inhibition (GI50) of at most 100 nM.
In data set [1], `CN[C@@H](C)C(=O)N[C@H](C(=O)N1CCC[C@H]1C(=O)Nc1cc2c(Nc3ccc(N4CCCCC4)c(F)c3)ncnc2cc1OC)C(C)(C)C` [Example 85, (S)-1-((S)-3,3-dimethyl-2-((S)-2-(methylamino)propanamido)butanoyl)-N-(4-((3-fluoro-4-(piperidin-1-yl)phenyl)amino)-7-methoxyquinazolin-6-yl)pyrrolidine-2-carboxamide hydrochloride] returned a GI50 at 72 h above 10000 nM. For the same molecule, the GI50 in data set [2] was at most 100 nM.
The like results for `CN[C@@H](C)C(=O)N[C@H](C(=O)N1CCC[C@H]1C(=O)Nc1cc2c(NCCc3ccccc3)ncnc2cc1OC)C(C)(C)C` [Example 83, hydrochloride] were, in that order, above 10000 nM and 100 to 1000 nM.
The like results for `C#CCOc1ccc(Nc2ncnc3cc(OC)c(NC(=O)[C@@H]4CCCN4C(=O)[C@@H](NC(=O)[C@H](C)NC)C(C)(C)C)cc23)cc1` [Example 91, (S)-1-((S)-3,3-dimethyl-2-((S)-2-(methylamino)propanamide)butanoyl)-N-(7-methoxy-4-((4-(2-propyn-1-yloxy)phenyl)amino)quinazolin-6-yl)pyrrolidine-2-carboxamide hydrochloride] were, in that order, above 10000 nM and at most 100 nM.
As to `CN[C@@H](C)C(=O)N[C@H](C(=O)N1CCC[C@H]1C(=O)Nc1cc2c(Nc3ccc4c(c3)CC(=O)N4)ncnc2cc1OC)C(C)(C)C` [Example 94, (S)-1-((S)-3,3-dimethyl-2-((S)-2-(methylamino)propanamide)butanoyl)-N-(7-methoxy-4-((2-oxoindolin-5-yl)amino)quinazolin-6-yl)pyrrolidine-2-carboxamide hydrochloride], the GI50 at 72 h in data set [1] was above 10000 nM. In data set [2], this molecule registered a GI50 of 100 to 1000 nM.
`CN[C@@H](C)C(=O)N[C@H](C(=O)N1CCC[C@H]1C(=O)Nc1cc2c(Nc3ccc(N4CCN(CC5CC5)CC4)c(F)c3)ncnc2cc1OC)C(C)(C)C` [Example 100, hydrochloride]: the GI50 at 72 h in data set [1] was above 10000 nM. Also, the 50% growth inhibitory concentration (GI50) in data set [2] was at most 100 nM.
For `CN[C@@H](C)C(=O)N[C@H](C(=O)N1CCC[C@H]1C(=O)Nc1cc2c(Nc3ccc(OCc4ccccn4)c(Cl)c3)ncnc2cc1OC)C(C)(C)C` [Example 102, (S)—N-(4-((3-chloro-4-(pyridin-2-ylmethoxy)phenyl)amino)-7-methoxyquinazolin-6-yl)-1-((S)-3,3-dimethyl-2-((S)-2-(methylamino)propanamido)butanoyl)pyrrolidine-2-carboxamide hydrochloride], in data set [1], the GI50 at 72 h was above 10000 nM. In data set [2], this molecule yielded a GI50 of at most 100 nM.
`CN[C@@H](C)C(=O)N[C@H](C(=O)N1CCC[C@H]1C(=O)Nc1cc2c(Nc3ccc(C4CCN(C)CC4)cc3)ncnc2cc1OC)C(C)(C)C` [Example 106, (S)-1-((S)-3,3-dimethyl-2-((S)-2-(methylamino)propanamido)butanoyl)-N-(7-methoxy-4-((4-(1-methylpiperidin-4-yl)phenyl)amino)quinazolin-6-yl)pyrrolidine-2-carboxamide hydrochloride] had a GI50 at 72 h in data set [1] above 10000 nM. This molecule also returned a GI50 in data set [2] of at most 100 nM.
